The nature of series [1]: clinical. The conditions noted are these: human, in vivo, iv, Vdss.
Series [2] in a line: clinical. The conditions noted are these: human, in vivo, iv, CL.
A short description of series [3]: clinical. Conditions: human, in vivo, iv.
A short description of series [4]: clinical. Conditions: human, in vivo, iv, t1/2.

A word on the Vd: it is the apparent volume that relates the amount in the body to the concentration in plasma or blood. What is called clearance is the volume of plasma or blood freed of the substance per unit of time. The MRT is the average time that molecules of a dose stay in the body. Broadly, the half-life is how long it takes for the measured level to halve. A higher half-life goes with slow loss. Take `CCCCCN(CCCOC)C(=O)C(CCC(=O)O)NC(=O)c1ccc(Cl)c(Cl)c1` (stereo not drawn) [LOXIGLUMIDE]: the Vd in the series “clinical [1]” was determined as 0.24 L/kg. The clearance in “clinical [2]” amounted to 1 mL/min/kg. Also, the mean residence time (MRT) in the series “clinical [3]” was found to be 4 h. The molecule further showed a half-life in “clinical [4]” of 5.2 h.
The like results for `COC(=O)Nc1nc2ccc(C(=O)c3ccccc3)cc2[nH]1` [MEBENDAZOLE] were, in that order, 1.2 L/kg, 15 mL/min/kg, 1.3 h and 1.1 h.
As to `CC(CCc1ccc2c(c1)OCO2)NCC(O)c1ccc(O)c(C(N)=O)c1` (stereo not drawn) [MEDROXALOL], the Vd in “clinical [1]” is 7.9 L/kg. Besides, the clearance in the series “clinical [2]” came out at 16 mL/min/kg. Also, the MRT in the series “clinical [3]” turned out to be 8.2 h. Besides, the half-life in the series “clinical [4]” was 11 h.
On the same counts, the results for `CN(C)C(=N)N=C(N)N` [METFORMIN] are 0.64 L/kg, 7.4 mL/min/kg, 1.4 h and 1.7 h.
The like results for `Cn1cc[nH]c1=S` [METHIMAZOLE] were, in that order, 0.86 L/kg, 3.7 mL/min/kg, 3.8 h and 2.4 h.
Consider `C[C@](N)(Cc1ccc(O)c(O)c1)C(=O)O` [METHYLDOPA], for which, in “clinical [1]”, the Vd was 0.69 L/kg. In the series “clinical [2]”, this molecule had a clearance of 3.5 mL/min/kg. The same molecule displayed an MRT in the series “clinical [3]” of 3.3 h. In the series “clinical [4]”, this molecule gave a half-life of 5.9 h.
For the molecule `CCN(CC)CCNC(=O)c1cc(Cl)c(N)cc1OC` [METOCLOPRAMIDE], the Vd in “clinical [1]” was found to be 3.2 L/kg. Moreover, the clearance in “clinical [2]” amounted to 5.7 mL/min/kg. Further, the MRT in the series “clinical [3]” came to 9.4 h. In addition, the half-life in “clinical [4]” was 7.2 h.
On to `Cc1ccccc1N1C(=O)c2cc(S(N)(=O)=O)c(Cl)cc2NC1C` (stereo not drawn) [METOLAZONE], for which, in the series “clinical [1]”, the Vd turned out to be 1.6 L/kg. This molecule came in with a clearance in “clinical [2]” of 1.4 mL/min/kg. Besides, the MRT in the series “clinical [3]” was 19 h. This molecule also gave a half-life in the series “clinical [4]” of 20 h.
On the same counts, the results for `Cc1ncc([N+](=O)[O-])n1CCO` [METRONIDAZOLE] are 0.4 L/kg, 0.85 mL/min/kg, 7.8 h and 7.1 h.
The like results for `OCCN1C[C@H](O)[C@@H](O)[C@H](O)[C@H]1CO` [MIGLITOL] were, in that order, 0.28 L/kg, 1.7 mL/min/kg, 2.7 h and 2.3 h.
On the same counts, the results for `Cc1[nH]c(=O)c(C#N)cc1-c1ccncc1` [MILRINONE] are 0.25 L/kg, 6.2 mL/min/kg, 0.67 h and 0.8 h.
Consider `O=C(NCCN1CCOCC1)c1ccc(Cl)cc1` [MOCLOBEMIDE], for which the Vd in “clinical [1]” came out at 1.1 L/kg. In addition, in the series “clinical [2]”, the clearance is 10 mL/min/kg. The same molecule yielded an MRT in the series “clinical [3]” of 1.8 h. The same molecule gave a half-life in the series “clinical [4]” of 1.5 h.
The molecule `CC(C)(O)c1ccccc1CC[C@@H](SCC1(CC(=O)O)CC1)c1cccc(/C=C/c2ccc3ccc(Cl)cc3n2)c1` [MONTELUKAST] returned a Vd in the series “clinical [1]” of 0.15 L/kg. The molecule further displayed a clearance in “clinical [2]” of 0.68 mL/min/kg. Also, the MRT in “clinical [3]” is 3.8 h. In addition, the half-life in the series “clinical [4]” is 5 h.
`CN1CC[C@]23c4c5ccc(O)c4O[C@H]2[C@@H](O[C@@H]2O[C@H](C(=O)O)[C@@H](O)[C@H](O)[C@H]2O)C=C[C@H]3[C@H]1C5` [MORPHINE GLUCURONIDE] displayed a Vd in “clinical [1]” of 0.12 L/kg. In “clinical [2]”, this molecule gave a clearance of 2.2 mL/min/kg. In “clinical [3]”, the MRT came to 0.91 h. The molecule further gave a half-life in the series “clinical [4]” of 1.4 h.
On the same counts, the results for `COc1nc(C)nc(Cl)c1N=C1NCCN1` [MOXONIDINE] are 1.8 L/kg, 11 mL/min/kg, 2.7 h and 2.2 h.
The like results for `Oc1ccc2c3c1O[C@H]1[C@@H](O)CC[C@@]4(O)[C@@H](C2)N(CC2CCC2)CC[C@]314` [NALBUPHINE] were, in that order, 4.6 L/kg, 22 mL/min/kg, 3.5 h and 3.7 h.
In the series “clinical [1]”, `CC(C)[C@H]1CC[C@H](C(=O)N[C@H](Cc2ccccc2)C(=O)O)CC1` [NATEGLINIDE] displayed a Vd of 0.15 L/kg. In the series “clinical [2]”, this molecule had a clearance of 1.8 mL/min/kg. This molecule also came in with an MRT in “clinical [3]” of 1.4 h. The molecule also gave a half-life in “clinical [4]” of 1.5 h.
As to `OC(CNCC(O)C1CCc2cc(F)ccc2O1)C1CCc2cc(F)ccc2O1` (stereo not drawn) [NEBIVOLOL], the Vd in “clinical [1]” is 11 L/kg. The same molecule came in with a clearance in the series “clinical [2]” of 14 mL/min/kg. In addition, the MRT in “clinical [3]” was 13 h. The half-life in “clinical [4]” is 10 h.
For `CN1CCOC(c2ccccc2)c2ccccc2C1` (stereo not drawn) [NEFOPAM], in the series “clinical [1]”, the Vd stood at 5.6 L/kg. The molecule also returned a clearance in “clinical [2]” of 12 mL/min/kg. Also, the MRT in “clinical [3]” amounted to 8.1 h. In “clinical [4]”, this molecule gave a half-life of 5 h.
Turning to `COc1nc(N)nc2c1ncn2[C@@H]1O[C@H](CO)[C@@H](O)[C@@H]1O` [NELARABINE], the Vd in the series “clinical [1]” was determined as 4.9 L/kg. The molecule further displayed a clearance in “clinical [2]” of 81 mL/min/kg. The molecule also came in with an MRT in the series “clinical [3]” of 1 h. In the series “clinical [4]”, the half-life was 0.5 h.
On the same counts, the results for `CN(C)C(=O)Oc1cccc([N+](C)(C)C)c1.[Br-]` [NEOSTIGMINE BROMIDE] are 0.74 L/kg, 9.2 mL/min/kg, 1.3 h and 1.3 h.
The like results for `Cc1ccnc2c1NC(=O)c1cccnc1N2C1CC1` [NEVIRAPINE] were, in that order, 1.3 L/kg, 0.3 mL/min/kg, 81 h and 53 h.
The molecule `COC(=O)C1=C(C)NC(C)=C(C(=O)OCC(C)C)C1c1ccccc1[N+](=O)[O-]` (stereo not drawn) [NISOLDIPINE] yielded a Vd in the series “clinical [1]” of 5.5 L/kg. Moreover, the clearance in the series “clinical [2]” was determined as 15 mL/min/kg. This molecule also returned an MRT in “clinical [3]” of 6.5 h. In the series “clinical [4]”, this molecule showed a half-life of 11 h.
In the series “clinical [1]”, `O=C1CN=C(c2ccccc2)c2cc([N+](=O)[O-])ccc2N1` [NITRAZEPAM] displayed a Vd of 1.7 L/kg. Moreover, the clearance in “clinical [2]” amounted to 0.86 mL/min/kg. In the series “clinical [3]”, this molecule came in with an MRT of 33 h. Moreover, in “clinical [4]”, the half-life is 26 h.
As to `CNC(=C[N+](=O)[O-])NCCSCc1csc(CN(C)C)n1` [NIZATIDINE], the Vd in the series “clinical [1]” worked out at 1 L/kg. In addition, in “clinical [2]”, the clearance amounted to 9.8 mL/min/kg. For the same molecule, the MRT in the series “clinical [3]” amounted to 1.7 h. The half-life in the series “clinical [4]” is 1.5 h.
On the same counts, the results for `CN1Cc2c(N)cccc2C(c2ccccc2)C1` (stereo not drawn) [NOMIFENSINE] are 6 L/kg, 22 mL/min/kg, 4.5 h and 6.5 h.
In “clinical [1]”, `CCOC(=O)[C@]1(c2ccccc2)CCC=C[C@H]1NC` [NORTILIDINE] returned a Vd of 2.5 L/kg. Further, the clearance in the series “clinical [2]” is 9.9 mL/min/kg. In addition, the MRT in “clinical [3]” was 4.2 h. The half-life in “clinical [4]” is 4.4 h.
On the same counts, the results for `CNCCC=C1c2ccccc2CCc2ccccc21` [NORTRIPTYLINE] are 22 L/kg, 10 mL/min/kg, 37 h and 30 h.
`CC1COc2c(N3CCN(C)CC3)c(F)cc3c(=O)c(C(=O)O)cn1c23` (stereo not drawn) [OFLOXACIN] yielded a Vd in “clinical [1]” of 1.6 L/kg. In “clinical [2]”, this molecule had a clearance of 2.5 mL/min/kg. For the same molecule, the MRT in “clinical [3]” amounted to 11 h. The same molecule gave a half-life in the series “clinical [4]” of 8.9 h.
The like results for `O=C(O)c1cc(/N=N/c2ccc(O)c(C(=O)O)c2)ccc1O` [OLSALAZINE] were, in that order, 0.07 L/kg, 1.2 mL/min/kg, 0.97 h and 0.9 h.
In “clinical [1]”, `COc1ccc2[nH]c([S+]([O-])Cc3ncc(C)c(OC)c3C)nc2c1` (stereo not drawn) [OMEPRAZOLE] showed a Vd of 0.24 L/kg. This molecule returned a clearance in the series “clinical [2]” of 8.4 mL/min/kg. Further, in the series “clinical [3]”, the MRT was determined as 0.48 h. In addition, in the series “clinical [4]”, the half-life was 0.58 h.
As for `Cc1nccn1CC1CCc2c(c3ccccc3n2C)C1=O` (stereo not drawn) [ONDANSETRON], in the series “clinical [1]”, the Vd was 1.8 L/kg. For the same molecule, the clearance in “clinical [2]” worked out at 5.8 mL/min/kg. Besides, the MRT in the series “clinical [3]” amounted to 5.2 h. In the series “clinical [4]”, the half-life is 3.4 h.
On the same counts, the results for `CCC(CC)O[C@@H]1C=C(C(=O)O)C[C@H](N)[C@H]1NC(C)=O` [OSELTAMIVIR CARBOXYLATE] are 0.37 L/kg, 4.8 mL/min/kg, 1.3 h and 1.8 h.
The like results for `NC(=O)CN1CC(O)CC1=O` (stereo not drawn) [OXIRACETAM] were, in that order, 0.55 L/kg, 1.8 mL/min/kg, 4.9 h and 7.5 h.
In “clinical [1]”, `COc1ccc(Cc2nccc3cc(OC)c(OC)cc23)cc1OC` [PAPAVERINE] displayed a Vd of 0.95 L/kg. This molecule also displayed a clearance in “clinical [2]” of 11 mL/min/kg. In addition, in “clinical [3]”, the MRT came to 1.4 h. Besides, in the series “clinical [4]”, the half-life was 1.8 h.
`C[C@H](/C=C/[C@H](C)C(C)(C)O)[C@H]1CC[C@H]2/C(=C/C=C3C[C@@H](O)C[C@H](O)C3)CCC[C@]12C` [PARICALCITOL] gave a Vd in the series “clinical [1]” of 0.41 L/kg. The same molecule returned a clearance in the series “clinical [2]” of 0.89 mL/min/kg. Further, in the series “clinical [3]”, the MRT amounted to 7.7 h. The half-life in “clinical [4]” is 5.3 h.
Take `Nc1nc2c(ncn2CCC(CO)CO)c(=O)[nH]1` [PENCICLOVIR]: the Vd in “clinical [1]” was found to be 1.1 L/kg. The clearance in “clinical [2]” stood at 8.4 mL/min/kg. For the same molecule, in the series “clinical [3]”, the MRT was determined as 2.4 h. In addition, the half-life in the series “clinical [4]” is 2.1 h.
The like results for `CC1(C)S[C@@H]2[C@H](NC(=O)COc3ccccc3)C(=O)N2[C@H]1C(=O)O` [PENICILLIN V] were, in that order, 0.41 L/kg, 6.8 mL/min/kg, 1 h and 0.84 h.
The like results for `CC(=O)CCCCn1c(=O)c2c(ncn2C)n(C)c1=O` [PENTOXIFYLLINE] were, in that order, 1.8 L/kg, 39 mL/min/kg, 0.77 h and 1.2 h.
`c1ccc(C2(N3CCCCC3)CCCCC2)cc1` [PHENCYCLIDINE] gave a distribution volume (Vd) in “clinical [1]” of 6.9 L/kg. Further, the clearance in “clinical [2]” was 5.1 mL/min/kg. In “clinical [3]”, this molecule gave an MRT of 23 h. In the series “clinical [4]”, this molecule had a half-life of 16 h.
Molecule `CCC1(c2ccccc2)C(=O)NC(=O)NC1=O` [PHENOBARBITAL] registered a Vd in the series “clinical [1]” of 0.54 L/kg. In “clinical [2]”, this molecule yielded a clearance of 0.063 mL/min/kg. In addition, the MRT in “clinical [3]” is 140 h. The half-life in “clinical [4]” was 99 h.
In turn, `CC1CCCC(C)N1CCCC(O)(c1ccccc1)c1ccccn1` (stereo not drawn) [PIRMENOL] came in with a Vd in “clinical [1]” of 1.4 L/kg. Also, the clearance in the series “clinical [2]” was determined as 1.8 mL/min/kg. Moreover, the MRT in the series “clinical [3]” worked out at 13 h. The molecule also gave a half-life in the series “clinical [4]” of 8.4 h.
